Consider one compound from publication PMC4033643 (Chemical research in toxicology, 2014).

The target in assay [1] is T1, thioredoxin reductase 1 (TrxR1) (Rattus norvegicus, UniProt O89049).
T1 sequence (O89049 1-499): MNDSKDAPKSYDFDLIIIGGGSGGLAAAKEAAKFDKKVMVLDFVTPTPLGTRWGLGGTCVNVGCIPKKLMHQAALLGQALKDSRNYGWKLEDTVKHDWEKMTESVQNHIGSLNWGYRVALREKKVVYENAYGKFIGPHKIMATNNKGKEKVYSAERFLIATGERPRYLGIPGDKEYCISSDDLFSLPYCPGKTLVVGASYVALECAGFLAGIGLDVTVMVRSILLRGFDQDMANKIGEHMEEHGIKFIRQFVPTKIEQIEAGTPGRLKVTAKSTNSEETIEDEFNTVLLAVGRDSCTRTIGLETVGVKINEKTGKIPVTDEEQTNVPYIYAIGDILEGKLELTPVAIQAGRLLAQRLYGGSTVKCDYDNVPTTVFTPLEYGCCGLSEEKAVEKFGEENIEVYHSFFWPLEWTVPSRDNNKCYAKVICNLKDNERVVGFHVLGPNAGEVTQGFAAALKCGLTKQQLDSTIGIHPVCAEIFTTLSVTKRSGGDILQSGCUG
Kind of assay: DTNB reduction assay with purified NADPH-reduced enzyme. In kind it is biochemical.

The target in assay [2] is T2, human TrxR1 Sec498Cys mutant enzyme (Homo sapiens, UniProt Q16881, U648C).
T2 sequence (Q16881 151-649 U648C): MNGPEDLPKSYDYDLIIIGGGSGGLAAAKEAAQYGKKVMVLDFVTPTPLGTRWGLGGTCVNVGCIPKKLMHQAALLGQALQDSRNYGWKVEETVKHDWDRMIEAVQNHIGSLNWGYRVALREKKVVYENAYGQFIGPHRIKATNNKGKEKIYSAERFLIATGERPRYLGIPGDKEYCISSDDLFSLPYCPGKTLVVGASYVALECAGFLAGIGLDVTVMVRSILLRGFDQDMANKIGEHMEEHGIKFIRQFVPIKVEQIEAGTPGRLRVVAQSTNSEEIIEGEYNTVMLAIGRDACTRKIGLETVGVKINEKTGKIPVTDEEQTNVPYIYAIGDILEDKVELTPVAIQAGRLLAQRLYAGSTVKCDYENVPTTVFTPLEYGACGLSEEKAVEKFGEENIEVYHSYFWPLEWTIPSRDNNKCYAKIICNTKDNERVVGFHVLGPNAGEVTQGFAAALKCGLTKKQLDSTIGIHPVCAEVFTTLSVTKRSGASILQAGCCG
Kind of assay: DTNB reduction assay with recombinant mutant enzyme. In kind it is biochemical.

Consider `CC(=O)N=C1C=CC(=O)C=C1` [NAPQI, N-acetyl-p-benzoquinone imine], for which the IC50 (in general, the midpoint of a concentration-inhibition curve) was 0.023 µM in assay [1] and 17 µM in assay [2].
